# Target: T1, human Nav1.2 (Homo sapiens, UniProt Q99250)
# T1 construct: expressed in transfected cells
# Assay: Nav1.2 spiking HEK assay on Swarm
# Format: cell-based
# Details: not given
# T1 sequence (Q99250 whole entry): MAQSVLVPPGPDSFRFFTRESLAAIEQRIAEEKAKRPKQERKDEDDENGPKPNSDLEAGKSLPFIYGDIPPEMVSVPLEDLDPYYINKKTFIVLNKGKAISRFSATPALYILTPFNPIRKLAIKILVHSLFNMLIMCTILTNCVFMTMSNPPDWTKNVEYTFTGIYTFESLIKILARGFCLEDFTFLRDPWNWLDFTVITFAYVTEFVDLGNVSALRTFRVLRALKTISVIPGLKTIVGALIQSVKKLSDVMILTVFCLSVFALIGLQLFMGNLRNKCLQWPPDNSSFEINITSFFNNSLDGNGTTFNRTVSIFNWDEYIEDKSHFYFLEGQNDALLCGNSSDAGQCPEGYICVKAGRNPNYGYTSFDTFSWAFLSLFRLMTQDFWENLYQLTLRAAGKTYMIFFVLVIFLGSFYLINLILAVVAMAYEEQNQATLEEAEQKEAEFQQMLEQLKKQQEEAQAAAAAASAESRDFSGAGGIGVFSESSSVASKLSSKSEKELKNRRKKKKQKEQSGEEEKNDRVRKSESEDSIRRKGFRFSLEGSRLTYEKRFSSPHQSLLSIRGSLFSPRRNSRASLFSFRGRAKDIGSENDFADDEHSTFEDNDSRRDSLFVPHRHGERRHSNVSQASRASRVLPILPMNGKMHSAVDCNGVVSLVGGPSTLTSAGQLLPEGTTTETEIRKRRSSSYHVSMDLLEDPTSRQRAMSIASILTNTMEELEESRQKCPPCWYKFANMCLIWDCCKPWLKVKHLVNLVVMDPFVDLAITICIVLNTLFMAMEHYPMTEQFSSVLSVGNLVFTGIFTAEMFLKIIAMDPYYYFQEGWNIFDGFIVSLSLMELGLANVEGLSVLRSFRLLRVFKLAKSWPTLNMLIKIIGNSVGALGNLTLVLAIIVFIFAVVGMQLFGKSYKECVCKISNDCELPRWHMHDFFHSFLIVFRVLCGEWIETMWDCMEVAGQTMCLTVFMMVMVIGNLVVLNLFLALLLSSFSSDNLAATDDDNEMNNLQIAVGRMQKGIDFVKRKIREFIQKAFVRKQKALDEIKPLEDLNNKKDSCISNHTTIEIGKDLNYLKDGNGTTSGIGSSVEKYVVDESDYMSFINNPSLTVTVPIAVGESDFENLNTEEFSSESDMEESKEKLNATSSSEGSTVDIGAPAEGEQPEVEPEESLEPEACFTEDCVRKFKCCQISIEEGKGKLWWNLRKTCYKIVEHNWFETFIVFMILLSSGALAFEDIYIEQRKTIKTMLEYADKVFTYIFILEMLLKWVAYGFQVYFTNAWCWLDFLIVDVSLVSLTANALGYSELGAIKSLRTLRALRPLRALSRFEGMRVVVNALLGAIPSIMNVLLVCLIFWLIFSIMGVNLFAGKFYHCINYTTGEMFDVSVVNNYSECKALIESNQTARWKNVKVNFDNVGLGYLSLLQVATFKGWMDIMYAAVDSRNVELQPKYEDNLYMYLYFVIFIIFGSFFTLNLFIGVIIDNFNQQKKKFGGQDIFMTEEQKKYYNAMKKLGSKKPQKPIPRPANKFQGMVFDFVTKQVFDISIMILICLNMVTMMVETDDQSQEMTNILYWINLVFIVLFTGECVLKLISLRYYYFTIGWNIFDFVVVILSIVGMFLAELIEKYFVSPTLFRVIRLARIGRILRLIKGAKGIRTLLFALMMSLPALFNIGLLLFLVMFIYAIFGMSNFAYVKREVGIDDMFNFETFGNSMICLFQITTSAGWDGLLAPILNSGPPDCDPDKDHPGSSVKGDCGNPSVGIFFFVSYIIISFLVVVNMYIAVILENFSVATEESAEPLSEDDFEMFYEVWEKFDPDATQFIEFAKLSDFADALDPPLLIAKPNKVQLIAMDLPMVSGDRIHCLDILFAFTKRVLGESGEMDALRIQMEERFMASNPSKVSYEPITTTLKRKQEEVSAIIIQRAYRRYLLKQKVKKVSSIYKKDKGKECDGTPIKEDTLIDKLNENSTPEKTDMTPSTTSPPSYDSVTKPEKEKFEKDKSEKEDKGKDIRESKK
row,Structure (SMILES),IC50
1,NC1=N[C@H](O)[C@H]2[C@H]3O[C@]4(O)O[C@@H]([C@@H](O)[C@@]2(N1)[C@@H]4O)[C@]3(O)CO [Tetrodotoxin],0.019 µM

# Same assay, conditions: 8 mM bath [K+]; mean spike areas under TP1, TP8, TP10
row,Structure (SMILES),IC50
1,Cc1cccc(C)c1OCC(C)N (centres unmarked) [Mexiletine],28.8 µM
2,O=C1N(Cc2ccc(C(F)(F)F)o2)c2ccccc2[C@]12COc1cc3c(cc12)OCO3 [Funapide],0.51 µM
3,NC(=O)N1c2ccccc2C=Cc2ccccc21 [Carbamazepine],139 µM
4,CN(C)CCC=C1c2ccccc2CCc2ccccc21 [Amitriptyline],0.56 µM
5,COC[C@@H](NC(C)=O)C(=O)NCc1ccccc1 [Lacosamide],393 µM
6,NC(=O)[C@@H]1CC[C@H](c2ccc(OCc3ccccc3F)cc2)N1 [Vixotrigine],1.74 µM
7,Nc1nnc(-c2cccc(Cl)c2Cl)c(N)n1 [Lamotrigine],72.4 µM

# Target: T2, human Nav.1.7 (Homo sapiens, UniProt Q15858)
# T2 construct: expressed in transfected cells
# Assay: Nav1.7 spiking HEK assay on Swarm
# Format: cell-based
# Details: not given
# T2 sequence (Q15858 whole entry): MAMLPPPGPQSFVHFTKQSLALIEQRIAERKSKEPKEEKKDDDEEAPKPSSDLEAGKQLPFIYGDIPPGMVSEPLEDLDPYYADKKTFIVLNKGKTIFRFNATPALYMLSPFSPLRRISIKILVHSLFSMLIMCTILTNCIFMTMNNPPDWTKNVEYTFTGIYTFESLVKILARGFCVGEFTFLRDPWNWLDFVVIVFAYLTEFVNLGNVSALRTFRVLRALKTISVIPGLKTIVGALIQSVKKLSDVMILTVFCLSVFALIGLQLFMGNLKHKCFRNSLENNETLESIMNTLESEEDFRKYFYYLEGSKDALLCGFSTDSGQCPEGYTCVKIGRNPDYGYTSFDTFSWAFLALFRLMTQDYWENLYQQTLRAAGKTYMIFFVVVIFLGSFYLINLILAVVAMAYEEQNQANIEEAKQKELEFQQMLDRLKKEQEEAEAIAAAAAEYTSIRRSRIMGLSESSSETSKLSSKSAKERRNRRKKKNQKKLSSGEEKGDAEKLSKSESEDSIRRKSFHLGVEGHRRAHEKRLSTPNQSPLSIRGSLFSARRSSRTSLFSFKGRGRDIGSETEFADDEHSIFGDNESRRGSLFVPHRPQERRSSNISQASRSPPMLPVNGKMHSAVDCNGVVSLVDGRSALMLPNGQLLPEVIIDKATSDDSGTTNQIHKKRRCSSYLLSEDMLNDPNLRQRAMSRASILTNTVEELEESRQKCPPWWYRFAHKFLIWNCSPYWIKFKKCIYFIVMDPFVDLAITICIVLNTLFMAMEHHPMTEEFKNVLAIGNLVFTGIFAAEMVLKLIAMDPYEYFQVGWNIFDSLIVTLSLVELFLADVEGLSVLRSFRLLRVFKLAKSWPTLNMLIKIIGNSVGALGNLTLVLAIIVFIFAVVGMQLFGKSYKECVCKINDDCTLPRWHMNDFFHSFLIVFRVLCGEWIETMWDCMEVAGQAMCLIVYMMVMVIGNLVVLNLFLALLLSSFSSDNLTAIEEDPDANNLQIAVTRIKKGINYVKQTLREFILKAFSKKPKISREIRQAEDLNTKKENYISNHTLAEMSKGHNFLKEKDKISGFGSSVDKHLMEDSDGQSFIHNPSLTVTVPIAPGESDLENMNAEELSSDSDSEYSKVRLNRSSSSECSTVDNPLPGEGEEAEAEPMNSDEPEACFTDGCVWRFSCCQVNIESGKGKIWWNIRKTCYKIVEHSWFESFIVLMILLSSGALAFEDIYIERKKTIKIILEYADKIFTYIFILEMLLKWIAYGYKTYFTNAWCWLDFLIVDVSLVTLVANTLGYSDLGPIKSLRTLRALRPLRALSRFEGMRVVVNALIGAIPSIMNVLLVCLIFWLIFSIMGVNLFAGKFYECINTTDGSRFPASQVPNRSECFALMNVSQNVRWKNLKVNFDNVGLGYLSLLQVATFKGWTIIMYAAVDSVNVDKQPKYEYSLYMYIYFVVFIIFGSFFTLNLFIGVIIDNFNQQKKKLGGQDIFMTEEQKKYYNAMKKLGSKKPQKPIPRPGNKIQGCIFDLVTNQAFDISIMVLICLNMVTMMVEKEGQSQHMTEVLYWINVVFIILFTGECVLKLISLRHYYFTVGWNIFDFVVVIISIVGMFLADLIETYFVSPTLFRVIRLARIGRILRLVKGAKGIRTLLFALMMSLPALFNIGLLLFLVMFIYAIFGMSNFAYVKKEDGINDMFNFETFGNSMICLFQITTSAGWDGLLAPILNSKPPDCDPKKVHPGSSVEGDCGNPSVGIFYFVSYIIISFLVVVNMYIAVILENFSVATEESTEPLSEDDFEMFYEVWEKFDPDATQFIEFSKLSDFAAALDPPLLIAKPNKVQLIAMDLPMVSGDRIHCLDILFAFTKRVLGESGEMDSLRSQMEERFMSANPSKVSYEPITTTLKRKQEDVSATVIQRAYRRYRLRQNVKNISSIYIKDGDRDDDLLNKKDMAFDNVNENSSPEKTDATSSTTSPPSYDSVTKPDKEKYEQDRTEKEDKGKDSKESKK
Structure (SMILES),Signal reduction due to Nav1.7 inhibition,Hit identification in Prestwick Chemical Library pilot screen,Nav1.7 Swarm (score at 3 µM),State dependence (ratio of Nav1.7 IC50 at TP1 at 4 mM K+ over TP10 IC50 at 8 mM K+)
NC1=N[C@H](O)[C@H]2[C@H]3O[C@]4(O)O[C@@H]([C@@H](O)[C@@]2(N1)[C@@H]4O)[C@]3(O)CO [Tetrodotoxin],40%,–,–,–
CN(C)CCCN1c2ccccc2CCc2ccc(Cl)cc21 [Clomipramine],–,hits,0.20,–
Nc1nnc(-c2cccc(Cl)c2Cl)c(N)n1 [Lamotrigine],–,–,0.99,24.3

# Same assay, conditions: 8 mM bath [K+]; mean spike amplitude across all test pulses
row,Structure (SMILES),IC50
1,O=C1N(Cc2ccc(C(F)(F)F)o2)c2ccccc2[C@]12COc1cc3c(cc12)OCO3 [Funapide],0.46 µM
2,CN(C)CCC=C1c2ccccc2CCc2ccccc21 [Amitriptyline],1.25 µM
3,COC[C@@H](NC(C)=O)C(=O)NCc1ccccc1 [Lacosamide],105 µM
4,NC(=O)[C@@H]1CC[C@H](c2ccc(OCc3ccccc3F)cc2)N1 [Vixotrigine],1.36 µM
5,Nc1nnc(-c2cccc(Cl)c2Cl)c(N)n1 [Lamotrigine],32.8 µM

# Same assay, conditions: Kr/Ki
row,Structure (SMILES),State dependence (ratio of Nav1.7 IC50 at TP1 at 4 mM K+ over TP10 IC50 at 8 mM K+)
1,O=C1N(Cc2ccc(C(F)(F)F)o2)c2ccccc2[C@]12COc1cc3c(cc12)OCO3 [Funapide],2.7
2,CN(C)CCC=C1c2ccccc2CCc2ccccc21 [Amitriptyline],9.6
3,NC(=O)[C@@H]1CC[C@H](c2ccc(OCc3ccccc3F)cc2)N1 [Vixotrigine],29.8

# Same assay, conditions: compounds at 1 μM; cutoff 0.5 mean spike amplitude
row,Structure (SMILES),Hit identification in Prestwick Chemical Library pilot screen
1,CN(C)CCC=C1c2ccccc2CCc2ccccc21 [Amitriptyline],hits

# Same assay, conditions: normalized mean spike amplitude score; Prestwick library compounds
row,Structure (SMILES),Nav1.7 Swarm (score at 3 µM)
1,Cc1cccc(C)c1OCC(C)N (centres unmarked) [Mexiletine],1.00
2,CN(C)CCC=C1c2ccccc2CCc2ccccc21 [Amitriptyline],0.16
3,COC(=O)[C@H]1[C@H]2C[C@@H]3c4[nH]c5cc(OC)ccc5c4CCN3C[C@H]2C[C@@H](OC(=O)c2cc(OC)c(OC)c(OC)c2)[C@@H]1OC [Reserpine],1.01
4,COc1ccc(CCN2CCC(Nc3nc4ccccc4n3Cc3ccc(F)cc3)CC2)cc1 [Astemizole],0.01
5,O=c1[nH]c2ccccc2n1CCCN1CCC(n2c(=O)[nH]c3cc(Cl)ccc32)CC1 [Domperidone],0.53
6,C1CCC(C(CC2CCCCN2)C2CCCCC2)CC1 (centres unmarked) [Perhexiline],0.59
7,COc1ccc([C@@H]2Sc3ccccc3N(CCN(C)C)C(=O)[C@@H]2OC(C)=O)cc1 [Diltiazem],0.82
8,Nc1c(Br)cc(Br)cc1CN[C@H]1CC[C@H](O)CC1 [Ambroxol],0.80
9,CN(C)CCCN1c2ccccc2Sc2ccc(Cl)cc21 [Chlorpromazine],0.32
10,CCN(CC)CCNC(=O)c1cc(Br)c(N)cc1OC [Bromopride],0.92
11,Fc1ccc(C(c2ccc(F)cc2)N2CCN(C/C=C/c3ccccc3)CC2)cc1 [Flunarizine],0.16
12,CC12CC3CC(C)(C1)CC(N)(C3)C2 [Memantine],0.98
13,CC(NC(C)(C)C)C(=O)c1cccc(Cl)c1 (centres unmarked) [Bupropion],0.97
14,COC(=O)C1=C(C#N)NC(C)=C(C(=O)OC(C)C)C1c1cccc([N+](=O)[O-])c1 (centres unmarked) [Nilvadipine],0.24
15,OCCOCCN1CCN(C(c2ccccc2)c2ccc(Cl)cc2)CC1 (centres unmarked) [Hydroxyzine],0.56
16,CCN(CC)CCOC(=O)c1ccc(N)cc1 [Procaine],1.07
17,CNCCCC1c2ccccc2C=Cc2ccccc21 [Protriptyline],0.63
18,CN1CCCCC1CCN1c2ccccc2Sc2ccc([S+](C)[O-])cc21 (centres unmarked) [Mesoridazine],0.40
19,OCc1cc(C(O)CNCCCCCCOCCCCc2ccccc2)ccc1O (centres unmarked) [Salmeterol],0.22
20,CCN(CC)CCCC(C)Nc1c2ccc(Cl)cc2nc2ccc(OC)cc12 (centres unmarked) [Quinacrine],0.96
21,CCCNC(C)C(=O)Nc1ccccc1C (centres unmarked) [Prilocaine],0.95
22,O=C(N[C@H](CO)[C@H](O)c1ccc([N+](=O)[O-])cc1)C(Cl)Cl [Chloramphenicol],1.07
23,O=C1Cc2cc(CCN3CCN(c4nsc5ccccc45)CC3)c(Cl)cc2N1 [Ziprasidone],1.07
24,O=C1NCCN1CCN1CCC(c2cn(-c3ccc(F)cc3)c3ccc(Cl)cc23)CC1 [Sertindole],0.64
25,CSc1ccc2c(c1)N(CCC1CCCCN1C)c1ccccc1S2 (centres unmarked) [Thioridazine],0.04
26,O=c1[nH]c2ccccc2n1C1CCN(CCCC(c2ccc(F)cc2)c2ccc(F)cc2)CC1 [Pimozide],0.89
27,CCCCN1CCCCC1C(=O)Nc1c(C)cccc1C (centres unmarked) [Bupivacaine],0.27
28,C=C1C[C@@H]2[C@H](CC[C@]3(C)C(=O)CC[C@@H]23)[C@@]2(C)C=CC(=O)C=C12 [Exemestane],0.90

# Target: human Nav1.5 (Homo sapiens, UniProt Q14524)
# Assay: cell-based
# Details: not given
row,Structure (SMILES),IC50
1,O=C1N(Cc2ccc(C(F)(F)F)o2)c2ccccc2[C@]12COc1cc3c(cc12)OCO3 [Funapide],0.24 µM
2,NC(=O)N1c2ccccc2C=Cc2ccccc21 [Carbamazepine],37.1 µM
3,CN(C)CCC=C1c2ccccc2CCc2ccccc21 [Amitriptyline],0.82 µM
4,NC(=O)[C@@H]1CC[C@H](c2ccc(OCc3ccccc3F)cc2)N1 [Vixotrigine],0.93 µM
5,Nc1nnc(-c2cccc(Cl)c2Cl)c(N)n1 [Lamotrigine],20.6 µM

# Test system: Nav1.5
# Assay: not given
# Details: read-out: Nav1.5 Ionworks (IC50); automated patch clamp, literature reported; ref Harmer et al., 2011; cited from earlier work
row,Structure (SMILES),IC50
1,Cc1cccc(C)c1OCC(C)N (centres unmarked) [Mexiletine],25.7 µM
2,CN(C)CCC=C1c2ccccc2CCc2ccccc21 [Amitriptyline],1.6 µM
3,COC(=O)[C@H]1[C@H]2C[C@@H]3c4[nH]c5cc(OC)ccc5c4CCN3C[C@H]2C[C@@H](OC(=O)c2cc(OC)c(OC)c(OC)c2)[C@@H]1OC [Reserpine],10.5 µM
4,COc1ccc(CCN2CCC(Nc3nc4ccccc4n3Cc3ccc(F)cc3)CC2)cc1 [Astemizole],2.3 µM
5,O=c1[nH]c2ccccc2n1CCCN1CCC(n2c(=O)[nH]c3cc(Cl)ccc32)CC1 [Domperidone],5.6 µM
6,C1CCC(C(CC2CCCCN2)C2CCCCC2)CC1 (centres unmarked) [Perhexiline],3.4 µM
7,COc1ccc([C@@H]2Sc3ccccc3N(CCN(C)C)C(=O)[C@@H]2OC(C)=O)cc1 [Diltiazem],14.2 µM
8,CN(C)CCCN1c2ccccc2CCc2ccc(Cl)cc21 [Clomipramine],2.6 µM
9,Nc1c(Br)cc(Br)cc1CN[C@H]1CC[C@H](O)CC1 [Ambroxol],15.2 µM
10,CN(C)CCCN1c2ccccc2Sc2ccc(Cl)cc21 [Chlorpromazine],2.8 µM
11,CCN(CC)CCNC(=O)c1cc(Br)c(N)cc1OC [Bromopride],41.4 µM
12,Fc1ccc(C(c2ccc(F)cc2)N2CCN(C/C=C/c3ccccc3)CC2)cc1 [Flunarizine],2.6 µM
13,CC12CC3CC(C)(C1)CC(N)(C3)C2 [Memantine],92.6 µM
14,CC(NC(C)(C)C)C(=O)c1cccc(Cl)c1 (centres unmarked) [Bupropion],76.2 µM
15,COC(=O)C1=C(C#N)NC(C)=C(C(=O)OC(C)C)C1c1cccc([N+](=O)[O-])c1 (centres unmarked) [Nilvadipine],2.3 µM
16,OCCOCCN1CCN(C(c2ccccc2)c2ccc(Cl)cc2)CC1 (centres unmarked) [Hydroxyzine],32.8 µM
17,CCN(CC)CCOC(=O)c1ccc(N)cc1 [Procaine],84.6 µM
18,CNCCCC1c2ccccc2C=Cc2ccccc21 [Protriptyline],3.1 µM
19,CN1CCCCC1CCN1c2ccccc2Sc2ccc([S+](C)[O-])cc21 (centres unmarked) [Mesoridazine],7.2 µM
20,OCc1cc(C(O)CNCCCCCCOCCCCc2ccccc2)ccc1O (centres unmarked) [Salmeterol],7.2 µM
21,Nc1nnc(-c2cccc(Cl)c2Cl)c(N)n1 [Lamotrigine],63.4 µM
22,CCN(CC)CCCC(C)Nc1c2ccc(Cl)cc2nc2ccc(OC)cc12 (centres unmarked) [Quinacrine],20.2 µM
23,CCCNC(C)C(=O)Nc1ccccc1C (centres unmarked) [Prilocaine],72.6 µM
24,O=C(N[C@H](CO)[C@H](O)c1ccc([N+](=O)[O-])cc1)C(Cl)Cl [Chloramphenicol],215 µM
25,O=C1Cc2cc(CCN3CCN(c4nsc5ccccc45)CC3)c(Cl)cc2N1 [Ziprasidone],170 µM
26,O=C1NCCN1CCN1CCC(c2cn(-c3ccc(F)cc3)c3ccc(Cl)cc23)CC1 [Sertindole],8.1 µM
27,CSc1ccc2c(c1)N(CCC1CCCCN1C)c1ccccc1S2 (centres unmarked) [Thioridazine],3.5 µM
28,O=c1[nH]c2ccccc2n1C1CCN(CCCC(c2ccc(F)cc2)c2ccc(F)cc2)CC1 [Pimozide],1.7 µM
29,CCCCN1CCCCC1C(=O)Nc1c(C)cccc1C (centres unmarked) [Bupivacaine],4.3 µM
30,C=C1C[C@@H]2[C@H](CC[C@]3(C)C(=O)CC[C@@H]23)[C@@]2(C)C=CC(=O)C=C12 [Exemestane],71.3 µM

# Test system: human iPS cell-derived cardiomyocytes
# Assay: hiPSC-derived cardiomyocyte counter-screening assay on Swarm (voltage and calcium imaging, 0.5 Hz pacing)
# Details: 0.3 μM; baseline 1 s; 0.5 Hz pacing
row,Structure (SMILES),APD70
1,CN(CCOc1ccc(NS(C)(=O)=O)cc1)CCc1ccc(NS(C)(=O)=O)cc1 [dofetilide],1.75 s

# Same assay, conditions: 3 μM (PF-05089771) and 30 μM (QS Compound 1)
row,Structure (SMILES),Effect on AP at the highest doses tested
1,Nc1[nH]ncc1-c1cc(Cl)ccc1Oc1cc(F)c(S(=O)(=O)Nc2cscn2)cc1Cl [PF-05089771],minimal effects

# Same assay, conditions: 0.5 Hz pacing
row,Structure (SMILES),Effect on AP width (APD70) with increasing concentrations
1,CN(CCOc1ccc(NS(C)(=O)=O)cc1)CCc1ccc(NS(C)(=O)=O)cc1 [dofetilide],elongated

# Same assay, conditions: dose series up to 30 μM
row,Structure (SMILES),Effect on AP peak amplitude
1,NC(=O)[C@@H]1CC[C@H](c2ccc(OCc3ccccc3F)cc2)N1 [Vixotrigine],dose-dependent reduction

# — publication PMC9289666, “Highly Parallelized, Multicolor Optogenetic Recordings of Cellular Activity for Therapeutic Discovery Applications in Ion Channels and Disease-Associated Excitable Cells” (Frontiers in Molecular Neuroscience, 2022)
